Experimental data from BigSolDB 2.1.

COC(=O)[C@H](N)c1ccc(O)cc1
Conditions | solubility (mole fraction)
in ethanol, 283.15 K | 0.00129
in ethanol, 288.13 K | 0.00179
in ethanol, 293.15 K | 0.0024
in ethanol, 298.17 K | 0.00318
in ethanol, 303.15 K | 0.00411
in ethanol, 308.2 K | 0.00522
in ethanol, 313.15 K | 0.00652
in ethanol, 318.1 K | 0.008
in ethanol, 323.15 K | 0.00968
in ethyl acetate, 283.15 K | 0.000154
in ethyl acetate, 288.17 K | 0.00029
in ethyl acetate, 293.15 K | 0.000479
in ethyl acetate, 298.15 K | 0.000761
in ethyl acetate, 303.16 K | 0.00113
in ethyl acetate, 308.15 K | 0.00158
in ethyl acetate, 313.15 K | 0.00209
in ethyl acetate, 318.18 K | 0.00261
in ethyl acetate, 323.15 K | 0.00311
in isopropanol, 283.15 K | 0.000167
in isopropanol, 288.2 K | 0.000327
in isopropanol, 293.14 K | 0.000576
in isopropanol, 298.15 K | 0.000976
in isopropanol, 303.15 K | 0.00163
in isopropanol, 308.2 K | 0.00258
in isopropanol, 313.2 K | 0.00368
in isopropanol, 318.15 K | 0.00517
in isopropanol, 323.15 K | 0.00677
in isopropyl acetate, 283.17 K | 4.68e-05
in isopropyl acetate, 288.15 K | 8.53e-05
in isopropyl acetate, 293.14 K | 0.000146
in isopropyl acetate, 298.15 K | 0.000237
in isopropyl acetate, 303.13 K | 0.00037
in isopropyl acetate, 308.15 K | 0.000555
in isopropyl acetate, 313.15 K | 0.0008
in isopropyl acetate, 318.15 K | 0.00111
in isopropyl acetate, 323.15 K | 0.00149
in methanol, 283.1 K | 0.00221
in methanol, 288.15 K | 0.00273
in methanol, 293.24 K | 0.00338
in methanol, 298.1 K | 0.00415
in methanol, 303.15 K | 0.00505
in methanol, 308.2 K | 0.00611
in methanol, 313.2 K | 0.00732
in methanol, 318.15 K | 0.00872
in methanol, 323.2 K | 0.0103
in methyl acetate, 283.12 K | 0.000417
in methyl acetate, 288.2 K | 0.000578
in methyl acetate, 293.17 K | 0.000914
in methyl acetate, 298.14 K | 0.00136
in methyl acetate, 303.15 K | 0.0019
in methyl acetate, 308.15 K | 0.00253
in methyl acetate, 313.15 K | 0.0032
in methyl acetate, 318.15 K | 0.00385
in methyl acetate, 323.15 K | 0.00444
in n-butanol, 283.15 K | 0.000489
in n-butanol, 288.2 K | 0.000737
in n-butanol, 293.17 K | 0.00114
in n-butanol, 298.18 K | 0.00164
in n-butanol, 303.15 K | 0.00224
in n-butanol, 308.2 K | 0.00308
in n-butanol, 313.15 K | 0.00418
in n-butanol, 318.15 K | 0.00561
in n-butanol, 323.15 K | 0.00733
in n-butyl acetate, 283.1 K | 5.67e-05
in n-butyl acetate, 288.15 K | 8.11e-05
in n-butyl acetate, 293.15 K | 0.000116
in n-butyl acetate, 298.17 K | 0.000165
in n-butyl acetate, 303.15 K | 0.000233
in n-butyl acetate, 308.15 K | 0.000326
in n-butyl acetate, 313.14 K | 0.000456
in n-butyl acetate, 318.15 K | 0.000626
in n-butyl acetate, 323.12 K | 0.000873
in n-pentanol, 283.14 K | 6.94e-05
in n-pentanol, 288.2 K | 0.000156
in n-pentanol, 293.15 K | 0.000322
in n-pentanol, 298.15 K | 0.000606
in n-pentanol, 303.15 K | 0.00107
in n-pentanol, 308.14 K | 0.00177
in n-pentanol, 313.15 K | 0.00273
in n-pentanol, 318.15 K | 0.00399
in n-pentanol, 323.15 K | 0.00549
in n-propanol, 283.13 K | 0.000939
in n-propanol, 288.2 K | 0.00127
in n-propanol, 293.15 K | 0.00173
in n-propanol, 298.13 K | 0.00226
in n-propanol, 303.15 K | 0.00295
in n-propanol, 308.15 K | 0.00382
in n-propanol, 313.15 K | 0.0049
in n-propanol, 318.2 K | 0.00624
in n-propanol, 323.15 K | 0.00787
in n-propyl acetate, 283.15 K | 6.95e-05
in n-propyl acetate, 288.14 K | 0.000135
in n-propyl acetate, 293.17 K | 0.000242
in n-propyl acetate, 298.2 K | 0.000415
in n-propyl acetate, 303.15 K | 0.000663
in n-propyl acetate, 308.15 K | 0.00102
in n-propyl acetate, 313.15 K | 0.0015
in n-propyl acetate, 318.15 K | 0.00203
in n-propyl acetate, 323.15 K | 0.00275
in water, 283.13 K | 1.9e-05
in water, 288.16 K | 2.8e-05
in water, 293.15 K | 4.81e-05
in water, 298.15 K | 7.86e-05
in water, 303.18 K | 0.000123
in water, 308.15 K | 0.000177
in water, 313.2 K | 0.000232
in water, 318.15 K | 0.0003
in water, 323.15 K | 0.00037
